Experimental findings from US9173395B2, “Use of substituted isoquinolinones, isoquinolindiones, isoquinolintriones and dihydroisoquinolinones or in each case salts thereof as active agents against abiotic stress in plants” (BAYER INTELLECTUAL PROPERTY GMBH, priority 2011, dated 2015) are described below.

For one experiment, the system named is TRZAS. Put plainly: Drought stress test on crop plants, visual damage rating, efficacy EF. It is filed as in vivo, Triticum aestivum. As to conditions: dosage 25 g/ha, mean of three results. As to the method: (§1) Seeds of monocotyledonous and dicotyledonous crop plants were laid out in sandy loam in wood-fiber pots, covered with soil and cultivated in a greenhouse under good growth conditions. The test plants were treated at the early leaf stage (BBCH10-BBCH13). To ensure uniform water supply before commencement of stress, the potted plants were supplied with the maximum amount of water immediately beforehand by dam irrigation and, after application, transferred into plastic inserts in order to prevent subsequent, excessively rapid drying. The compounds according to the invention, formulated in the form of wettable powders (WP), wettable granules (WG), suspension concentrates (SC) or emulsion concentrates (EC), were sprayed onto the green parts of the plants as an aqueous suspension at an equivalent water application rate of 600 I/ha with addition of 0.2% wetting agent (agrotin). Substance application is followed immediately by stress treatment of the plants (cold or drought stress). […]
(§2) After the recovery phase had ended, the intensities of damage were rated visually in comparison to untreated, unstressed controls of the same age (in the case of drought stress) or the same growth stage (in the case of cold stress). The intensity of damage was first recorded as a percentage (100%=plants have died, 0%=like control plants). […]

The test system of a further experiment is BRSNS. Described as above. It is filed as in vivo, Brassica napus. Particulars: dosage 25 g/ha, mean of three results. As to the method:
as §1, §2

As to `O=c1[nH]ccc2ccc(-c3ccc(Cl)cc3F)cc12` [I.1-252, 7-(4-chloro-2-fluorophenyl)isoquinolin-1(2H)-one], the “EF (TRZAS)” value in the experiment with TRZAS is greater than 5%. The “EF (BRSNS)” value in the experiment on BRSNS was greater than 5%.
